Test results: BindingDB's records for doi:10.1021/jm800200u (Mgi Pharma, 2008)

Biological target: D-amino-acid oxidase (Sus scrofa, UniProt P00371)
Assay: In vitro D-Amino Acid Oxidase Assay
Settings: pH 8.5; 22 °C
Description: D-amino acid oxidase (DAAO) was assayed in a 96-well plate format. D-serine was oxidatively deaminated by porcine D-amino acid oxidase in the presence of molecular oxygen and flavin […] dinucleotide (FAD) to yield the corresponding alpha-keto acid, ammonia and hydrogen peroxide.

Chain of D-amino-acid oxidase (P00371 whole entry): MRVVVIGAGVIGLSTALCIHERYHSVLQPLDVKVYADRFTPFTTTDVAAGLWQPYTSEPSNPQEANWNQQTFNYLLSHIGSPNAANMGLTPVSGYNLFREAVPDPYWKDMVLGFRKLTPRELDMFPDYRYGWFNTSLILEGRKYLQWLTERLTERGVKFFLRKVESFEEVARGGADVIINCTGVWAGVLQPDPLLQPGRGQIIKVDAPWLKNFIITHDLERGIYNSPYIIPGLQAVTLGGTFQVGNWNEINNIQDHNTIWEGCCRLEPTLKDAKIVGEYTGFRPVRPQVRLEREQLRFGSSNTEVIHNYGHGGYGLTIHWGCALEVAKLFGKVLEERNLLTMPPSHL

`O=c1[nH]oc2c1CCCC2` [4,5,6,7-tetrahydrobenzo[d]isoxazol-3-ol] showed an IC50 greater than 100 µM.
